Our source for the IC50 values is patent US20080262031A1, “4-Aminoquinoline Derivatives as Antimalarials” (CTG PHARMA S.R.L., priority 2005, published 2008).

The test system of assay [1] is chloroquine-sensitive (CQ-S) Plasmodium falciparum strain D10. As to the kind of experiment: in vitro antimalarial activity on chloroquine-sensitive strain D10. Type of assay: cell-based.
Assay [2] deals with chloroquine-resistant (CQ-R) Plasmodium falciparum strain W2. As to the kind of experiment: in vitro antimalarial activity on chloroquine-resistant strain W2. The class given is cell-based.
Setting [3] is: P. falciparum strain D10, chloroquine-sensitive, n = 4 ± SD, read-out: D10 (CQ-S) IC50.
The mark [4] stands for this setting: P. falciparum strain W2, chloroquine-resistant, n = 4 ± SD, read-out: W2 (CQ-R) IC50.

Values after ≈ are worked out from the molar mass of the structure shown. Where two headings read alike, the source gives them in different places.

On to `Oc1cc(Nc2ccnc3cc(Cl)ccc23)ccc1CNC[C@@H]1CCCN2CCCC[C@H]12` [Example 3], for which the concentration for half-maximal inhibition (IC50) (as a rule, the concentration that inhibits the measured activity by half) amounted to 0.0103 ± 0.0019 µg/mL (≈ 0.0228 µM) in assay [1] (setting [3]) and 0.0114 ± 0.0021 µg/mL (≈ 0.0253 µM) in assay [2] (setting [4]).
As for `Clc1ccc2c(NCCC34CCCN3CCC4)ccnc2c1` [Example 1, N-(7-chloro-quinolin-4-yl)-2-(tetrahydropyrrolizin-7a-yl)-ethylamine], the IC50 came out at 0.0017 ± 0.0014 µg/mL (≈ 0.00538 µM) in assay [1] (setting [3]) and 0.0173 ± 0.0024 µg/mL (≈ 0.0548 µM) in assay [2] (setting [4]).
In the same order, the values of `Clc1ccc2c(NCC34CCCN3CCC4)ccnc2c1` [Example 2, N-(7-chloro-quinolin-4-yl)-(tetrahydropyrrolizin-7a-yl)-methylamine] are 0.0092 ± 0.0022 µg/mL (≈ 0.0305 µM) and 0.0087 ± 0.0035 µg/mL (≈ 0.0288 µM).
Regarding `CCN(CC)CCCC(C)Nc1ccnc2cc(Cl)ccc12` (stereo not shown) [Chloroquine, chloroquine, reference compound], the IC50 in assay [1] (D10, read-out: D10 (CQ-S) IC50) was determined as 0.0097 ± 0.0036 µg/mL (≈ 0.0303 µM); in assay [2] (W2, read-out: W2 (CQ-R) IC50), 0.17 ± 0.0413 µg/mL (≈ 0.532 µM).
Regarding `Oc1cc(Nc2ccnc3cc(Cl)ccc23)ccc1CNCCC12CCCN1CCC2` [Example 4], the IC50 is 0.0172 ± 0.0019 µg/mL (≈ 0.0394 µM) in assay [1] (setting [3]) and below 0.08 µg/mL in assay [2] (setting [4]).
